Active and inactive are the calls of the source. The rule behind the calls is not given here.
Tests used:
[1] = test system: Mus musculus; experiment: Compound was evaluated for the dose required for protection against MES-induced seizures after 4 hours of intraperitoneal administration at the doses< = 0.77-0.90 mM/kg; Inactive; assay type: functional, organism-based
[2] = test system: Mus musculus; experiment: Compound was evaluated for the dose required for protection against scMET-induced seizures after 4 hours of intraperitoneal administration; assay type: functional
[3] = test system: Mus musculus; experiment: Compound was evaluated for the neuro toxicity up to 4 hours after doses of <=300 mg/kg administered intraperitoneally; No toxicity; assay type: organism-based; conditions: in vivo, ip

O=C1NC(=O)C(c2cccc(C(F)(F)F)c2)(c2cccc(C(F)(F)F)c2)N1
Activity [1]: inactive
Activity [2]: 2.6 mmol/kg
Neurotoxicity [3]: No toxicity
